For 11 compounds, IC50 results are on record in US10538555B2, “Macrocyclic inhibitors of the PD-1/PD-L1 and CD80(B7-1)/PD-L1 protein/protein interactions” (BRISTOL-MYERS SQUIBB COMPANY, priority 2014, dated 2020).

The assay has as its target T1, Human PD-L1/PD-1 (Homo sapiens, UniProt Q9NZQ7).
T1 construct: TVMV protease cleavage site (C); made in house; host or cells: HEK293T cells
Briefly: HTRF Human PD-L1/PD-1 binding assay (PD-1-Ig/PD-L1-His). To be noted: PD-L1-His 10 nM, PD-1-Ig 20 nM. The method, boiled down:
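Step 1: compound with PD-L1-His (10 nM final), 15 min. Step 2: PD-1-Ig (20 nM final), 15 min. Step 3: Eu-cryptate anti-Ig (1 nM) plus APC anti-His (20 nM), 30 min equilibration. Signal taken as 665 nm/620 nm ratio.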

Where [1] appears, read: class symbol, read-out: HTRF Human PD-L1/PD-1 Binding Assay IC50 Range.

Read-outs that look alike come from different tables or passages of the source. Where a SMILES comes first, the peptide text is derived from it. Bridges are numbered along the chain shown (N, C = ends). [ ]: non-standard residue; d: D form. Trp(1-CH2COOH) = N[C@@H](Cc1cn(CC(=O)O)c2ccccc12)C(=O)O; Bta = N[C@@H](Cc1csc2ccccc12)C(=O)O; Hyp = O=C(O)[C@@H]1C[C@@H](O)CN1; NMeNle = CCCC[C@H](NC)C(=O)O; NMeA = CN[C@@H](C)C(=O)O; Dab = NCC[C@H](N)C(=O)O; Dap = NC[C@H](N)C(=O)O; Sar = CNCC(=O)O

T1 sequence (Q9NZQ7 with tags, fused parts or gaps): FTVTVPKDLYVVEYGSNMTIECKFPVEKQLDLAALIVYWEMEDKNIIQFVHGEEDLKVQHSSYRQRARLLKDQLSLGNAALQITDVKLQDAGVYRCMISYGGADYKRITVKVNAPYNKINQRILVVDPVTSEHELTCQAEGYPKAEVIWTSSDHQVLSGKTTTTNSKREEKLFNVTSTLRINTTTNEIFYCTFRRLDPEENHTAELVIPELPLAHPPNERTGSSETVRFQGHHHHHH

With `CCCC[C@H]1C(=O)N(C)[C@@H](CCCC)C(=O)N[C@@H](CCC(=O)O)C(=O)N[C@H](C(=O)NCC(N)=O)CSCC(=O)N[C@@H](Cc2ccc(O)cc2)C(=O)N(C)[C@@H](C)C(=O)N[C@@H](CC(=O)O)C(=O)N2CCC[C@H]2C(=O)N[C@@H](Cc2c[nH]cn2)C(=O)N[C@@H](CCC(N)=O)C(=O)N2C[C@H](O)C[C@H]2C(=O)N[C@@H](Cc2c[nH]c3ccccc23)C(=O)N[C@@H](CCN)C(=O)N[C@@H](Cc2c[nH]c3ccccc23)C(=O)N1C` [Example 5218] ({CH2CO}-Y[NMeA]DPHQ[Hyp]W[Dab]W[NMeNle][NMeNle]ECG-NH2; thioether N-14), under setting [1], the IC50 lay within 10 to 99.9 nM.

As for `CCCC[C@H]1C(=O)N(C)[C@@H](CCCC)C(=O)NCC(=O)N[C@H](C(=O)NCC(N)=O)CSCC(=O)N[C@@H](Cc2ccc(O)cc2)C(=O)N(C)[C@@H](C)C(=O)N[C@@H](CC(N)=O)C(=O)N2CCC[C@H]2C(=O)NCC(=O)N[C@@H](CCC(N)=O)C(=O)N2C[C@H](O)C[C@H]2C(=O)N[C@@H](Cc2c[nH]c3ccccc23)C(=O)NCC(=O)N[C@@H](Cc2c[nH]c3ccccc23)C(=O)N1C` [Example 5219] ({CH2CO}-Y[NMeA]NPGQ[Hyp]WGW[NMeNle][NMeNle]GCG-NH2; thioether N-14), the IC50 under setting [1] was 1 to 9.9 nM.

For `CCCC[C@H]1C(=O)N(C)[C@@H](CCCC)C(=O)N[C@@H](CN)C(=O)N[C@H](C(=O)NCC(N)=O)CSCC(=O)N[C@@H](Cc2ccc(O)cc2)C(=O)N(C)[C@@H](C)C(=O)N[C@@H](CC(=O)O)C(=O)N2CCC[C@H]2C(=O)N[C@@H](Cc2c[nH]cn2)C(=O)N[C@@H](CCC(=O)O)C(=O)N2C[C@H](O)C[C@H]2C(=O)N[C@@H](Cc2c[nH]c3ccccc23)C(=O)N[C@@H](CCN)C(=O)N[C@@H](Cc2cn(CC(=O)O)c3ccccc23)C(=O)N1C` [Example 5220], the IC50 under setting [1] was 100 to 990 nM.

Consider `CCCC[C@H]1C(=O)N(C)[C@@H](CCCC)C(=O)N[C@@H](CCC(=O)O)C(=O)N[C@H](C(=O)NCC(N)=O)CSCC(=O)N[C@@H](Cc2ccc(O)cc2)C(=O)N(C)[C@@H](C)C(=O)N[C@@H](CC(=O)O)C(=O)N2CCC[C@H]2C(=O)N[C@@H](CO)C(=O)N[C@@H](CCC(N)=O)C(=O)N2C[C@H](O)C[C@H]2C(=O)N[C@@H](Cc2c[nH]c3ccccc23)C(=O)N[C@@H](CCN)C(=O)N[C@@H](Cc2c[nH]c3ccccc23)C(=O)N1C` [Example 5221] ({CH2CO}-Y[NMeA]DPSQ[Hyp]W[Dab]W[NMeNle][NMeNle]ECG-NH2; thioether N-14), for which, under setting [1], the IC50 was 1 to 9.9 nM.

With `CCCC[C@H]1C(=O)N(C)[C@@H](CCCC)C(=O)N[C@@H](CN)C(=O)N[C@H](C(=O)NCC(N)=O)CSCC(=O)N[C@@H](Cc2ccc(O)cc2)C(=O)N(C)[C@@H](C)C(=O)N[C@@H](CC(N)=O)C(=O)N2CCC[C@H]2C(=O)N[C@@H](Cc2c[nH]cn2)C(=O)N[C@@H](CCC(N)=O)C(=O)N2C[C@H](O)C[C@H]2C(=O)N[C@@H](Cc2c[nH]c3ccccc23)C(=O)N[C@@H](CCN)C(=O)N[C@@H](Cc2cn(CC(=O)O)c3ccccc23)C(=O)N1C` [Example 5222] ({CH2CO}-Y[NMeA]NPHQ[Hyp]W[Dab][Trp(1-CH2COOH)][NMeNle][NMeNle][Dap]CG-NH2; thioether N-14), the IC50 (read-out: HTRF Human PD-L1/PD-1 Binding Assay IC50) was determined as 1000 nM.

For `CCCC[C@H]1C(=O)N(C)[C@@H](CCCC)C(=O)N[C@@H](CCC(=O)O)C(=O)N[C@H](C(=O)NCC(N)=O)CSCC(=O)N[C@@H](Cc2ccc(O)cc2)C(=O)N(C)[C@@H](C)C(=O)N[C@@H](CC(N)=O)C(=O)N2CCC[C@H]2C(=O)N[C@@H](Cc2c[nH]cn2)C(=O)N[C@@H](CCC(N)=O)C(=O)N2C[C@H](O)C[C@H]2C(=O)N[C@@H](Cc2c[nH]c3ccccc23)C(=O)N[C@@H](CCN)C(=O)N[C@@H](Cc2c[nH]c3ccccc23)C(=O)N1C` [Example 5223] ({CH2CO}-Y[NMeA]NPHQ[Hyp]W[Dab]W[NMeNle][NMeNle]ECG-NH2; thioether N-14), the IC50 under setting [1] fell in the range of 1 to 9.9 nM.

Regarding `CCCC[C@H]1C(=O)N(C)[C@@H](CCCC)C(=O)N[C@@H](CCC(=O)O)C(=O)N[C@H](C(=O)NCC(N)=O)CSCC(=O)N[C@@H](Cc2ccc(O)cc2)C(=O)N(C)[C@@H](C)C(=O)N[C@@H](CC(=O)O)C(=O)N2CCC[C@H]2C(=O)N[C@@H](CN)C(=O)N[C@@H](CCC(=O)O)C(=O)N2C[C@H](O)C[C@H]2C(=O)N[C@@H](Cc2c[nH]c3ccccc23)C(=O)N[C@@H](CCN)C(=O)N[C@@H](Cc2c[nH]c3ccccc23)C(=O)N1C` [Example 5224] ({CH2CO}-Y[NMeA]DP[Dap]E[Hyp]W[Dab]W[NMeNle][NMeNle]ECG-NH2; thioether N-14), the IC50 under setting [1] fell in the range of 1 to 9.9 nM.

Take `CCCC[C@H]1C(=O)N(C)[C@@H](CCCC)C(=O)N[C@@H](CC(C)C)C(=O)N[C@H](C(=O)NCC(N)=O)CSCC(=O)N[C@@H](Cc2ccc(O)cc2)C(=O)N(C)[C@@H](C)C(=O)N[C@@H](CC(N)=O)C(=O)N(C)CC(=O)N[C@@H](Cc2cnc[nH]2)C(=O)N[C@@H](CCC(=O)O)C(=O)N2C[C@H](O)C[C@H]2C(=O)N[C@@H](Cc2c[nH]c3ccccc23)C(=O)N[C@@H](CCN)C(=O)N[C@@H](Cc2csc3ccccc23)C(=O)N1C` [Example 5225] ({CH2CO}-Y[NMeA]N[Sar]HE[Hyp]W[Dab][Bta][NMeNle][NMeNle]LCG-NH2; thioether N-14): the IC50 under setting [1] was 1 to 9.9 nM.

Turning to `CCCC[C@H]1C(=O)N(C)[C@@H](CCCC)C(=O)N[C@@H](CN)C(=O)N[C@H](C(=O)NCC(N)=O)CSCC(=O)N[C@@H](Cc2ccc(O)cc2)C(=O)N(C)[C@@H](C)C(=O)N[C@@H](CC(=O)O)C(=O)N2CCC[C@H]2C(=O)N[C@@H](CN)C(=O)N[C@@H](CCC(N)=O)C(=O)N2C[C@H](O)C[C@H]2C(=O)N[C@@H](Cc2c[nH]c3ccccc23)C(=O)N[C@@H](CO)C(=O)N[C@@H](Cc2cn(CC(=O)O)c3ccccc23)C(=O)N1C` [Example 5226] ({CH2CO}-Y[NMeA]DP[Dap]Q[Hyp]WS[Trp(1-CH2COOH)][NMeNle][NMeNle][Dap]CG-NH2; thioether N-14), the IC50 under setting [1] fell in the range of 1 to 9.9 nM.

For `CCCC[C@H]1C(=O)N(C)[C@@H](CCCC)C(=O)N[C@@H](CN)C(=O)N[C@H](C(=O)NCC(N)=O)CSCC(=O)N[C@@H](Cc2ccc(O)cc2)C(=O)N(C)[C@@H](C)C(=O)N[C@@H](CC(=O)O)C(=O)N2CCC[C@H]2C(=O)N[C@@H](CN)C(=O)N[C@@H](CC(C)C)C(=O)N2C[C@H](O)C[C@H]2C(=O)N[C@@H](Cc2c[nH]c3ccccc23)C(=O)N[C@@H](CO)C(=O)N[C@@H](Cc2cn(CC(=O)O)c3ccccc23)C(=O)N1C` [Example 5227] ({CH2CO}-Y[NMeA]DP[Dap]L[Hyp]WS[Trp(1-CH2COOH)][NMeNle][NMeNle][Dap]CG-NH2; thioether N-14), the IC50 under setting [1] is 1 to 9.9 nM.

Regarding `CCCC[C@H]1C(=O)N(C)[C@@H](CCCC)C(=O)N[C@@H](CC(C)C)C(=O)N[C@H](C(=O)NCC(N)=O)CSCC(=O)N[C@@H](Cc2ccc(O)cc2)C(=O)N(C)[C@@H](C)C(=O)N[C@@H](CC(N)=O)C(=O)N2CCC[C@H]2C(=O)N[C@@H](Cc2c[nH]cn2)C(=O)N[C@@H](CCCCNC(C)=O)C(=O)N2C[C@H](O)C[C@H]2C(=O)N[C@@H](Cc2c[nH]c3ccccc23)C(=O)N[C@@H](CCN)C(=O)N[C@@H](Cc2c[nH]c3ccccc23)C(=O)N1C` [Example 5228] ({CH2CO}-Y[NMeA]NPHK(Ac)[Hyp]W[Dab]W[NMeNle][NMeNle]LCG-NH2; thioether N-14), the IC50 under setting [1] lay within 1 to 9.9 nM.
